Test results published in patent US12421254B2, “KRAS modulators and uses thereof” (Quanta Therapeutics, Inc., priority 2023, dated 2025).

Columns and labels:
[1] = molecular target: GST-tagged KRAS-G12V (2-169) (Homo sapiens, UniProt P01116, G12V); assay: Nucleotide exchange assay (NEA), SOS-mediated, HTRF, KRAS G12V; type: biochemical; details: Table 4; IC50 extracted at 90 min; 80 nM SOS
Description: (§1) This activity is tightly regulated by GTPase activating proteins (GAPs) and guanine nucleotide exchange factors (GEFs). GEFs, such as SOS1/2, activate Ras proteins by exchanging GDP for GTP, thus returning Ras to its active conformation (Simanshu, Nissley, & McCormick, 2017). […] Homogenous time resolved fluorescence (HTRF) was used to detect SOS-mediated binding of a fluorescent GTP analog, GTP-DY-647P1 (Jena Biosciences NU-820-647P1) to GST-tagged KRAS-G12D (2-169) or to GST-tagged KRAS-G12V (2-169, Reaction Biology, MSC-11-540).
(§2) GST-tagged KRAS-G12D (2-169) and anti-GST MAb Tb Cryptate Gold (CisBio 61GSTTLB) were diluted into assay buffer (20 mM HEPES, pH 7.3, 150 mM NaCl, 5 mM MgCl2, 0.05% BSA 0.0025% NP40, 1 mM DTT) to prepare a 2.5× donor solution. 5× compound was added to the protein mixture and incubated for 1 h at RT. 2.5× acceptor solution containing SOS1cat (564-1049, Reaction Biology MSC-11-502) and GTP-DY-647P1 were then added to the donor KRAS mixture such that the final concentration of the reaction contained 0.25 nM GST-tagged KRAS-G12D (2-169), 20 nM SOScat, and 150 nM GTP-DY-647P1. The reaction was monitored using at RT with the Envision multimode plate reader (Ex/Em 337/665, […]) up to 90 minutes at 5 minute intervals. To monitor KRAS-G12V SOS-mediated nucleotide exchange, 80 nM SOS was added to reaction instead of 20 nM. All other components were the same as previously described. Data was blanked to reactions without SOS1 and % inhibition was calculated such that DMSO only =0% and blank=100%. Curve fitting was done using a 4 parameter fit. Reported IC50 values were extracted at 30 min and 90 min for the KRAS-G12D and KRAS-G12V assays, respectively.

[2] = molecular target: GST-tagged KRAS-G12D (2-169) (Homo sapiens, UniProt P01116, G12D); assay: Nucleotide exchange assay (NEA), SOS-mediated, HTRF, KRAS G12D; type: biochemical; details: Table 4; IC50 extracted at 30 min; 20 nM SOScat; read-out: NEA G12D IC50
Description: as §1, §2
NEA KRAS G12D IC50 (uM) values of selected compounds are depicted in Table 2 with compounds having a value <0.01 uM as ++++; ≥0.01 uM to 0.1 uM as +++; ≥0.1 uM to 1 uM as ++; ≥1 uM to 20 uM as +; and ≥20 uM as NA.

GST-tagged KRAS-G12D (2-169), sequence (P01116 2-169 isoform P01116-2 G12D): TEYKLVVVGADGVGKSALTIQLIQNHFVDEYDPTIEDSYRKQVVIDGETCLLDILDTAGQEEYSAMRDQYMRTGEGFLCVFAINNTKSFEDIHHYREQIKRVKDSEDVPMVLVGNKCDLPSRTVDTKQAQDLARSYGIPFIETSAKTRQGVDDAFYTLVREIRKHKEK
GST-tagged KRAS-G12V (2-169), sequence (P01116 2-169 isoform P01116-2 G12V): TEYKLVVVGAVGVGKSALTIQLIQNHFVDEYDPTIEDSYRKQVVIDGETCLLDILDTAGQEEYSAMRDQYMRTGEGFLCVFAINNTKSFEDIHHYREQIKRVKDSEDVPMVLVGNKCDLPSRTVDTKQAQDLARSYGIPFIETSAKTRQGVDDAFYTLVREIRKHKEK

| Compound | IC50 [1] [nM] | IC50 [2] [nM] |
| --- | --- | --- |
| CN(Cc1c(O)ccnc1N)c1nc(OC[C@@]23CCCN2C[C@H](F)C3)nc(N2CC3(C2)SCc2sc(N)c(C#N)c23)n1 [Compound 182, 2-amino-1′-[4-[(2-amino-4-hydroxy-3-pyridyl)methyl-methyl-amino]-6-[[(2R,8S)-2-fluoro-1,2,3,5,6,7-hexahydropyrrolizin-8-yl]methoxy]-1,3,5-triazin-2-yl]spiro[6H-thieno[2,3-c]thiophene-4,3′-azetidine]-3-carbonitrile] | 10 to 100 | 10 to 100 |
| CC(=O)N1CCC(N(C)c2nc(OC[C@@]34CCCN3C[C@H](F)C4)nc(N3CC4(C3)SCc3sc(N)c(C#N)c34)n2)C1C (stereo partly drawn) [Compound 260, 1′-[4-[(1-acetyl-2-methyl-pyrrolidin-3-yl)-methyl-amino]-6-[[(2R,8S)-2-fluoro-1,2,3,5,6,7-hexahydropyrrolizin-8-yl]methoxy]-1,3,5-triazin-2-yl]-2-amino-spiro[6H-thieno[3,4-b]thiophene-4,3′-azetidine]-3-carbonitrile] | 10 to 100 | 100 to 1000 |
| Cc1ccc(C(C)N(C)c2nc(OC[C@@]34CCCN3C[C@H](F)C4)nc(N3CC4(C3)SCc3sc(N)c(C#N)c34)n2)c(N)n1 (stereo partly drawn) [Compound 230, 2′-amino-1-(4-((1-(2-amino-6-methylpyridin-3-yl)ethyl)(methyl)amino)-6-(((2R,7aS)-2-fluorotetrahydro-1H-pyrrolizin-7a(5H)-yl)methoxy)-1,3,5-triazin-2-yl)-6′H-spiro[azetidine-3,4′-thieno[3,4-b]thiophene]-3′-carbonitrile] | 1000 to 20000 | 1000 to 20000 |
| CCN(c1nc(OC[C@@]23CCCN2C[C@H](F)C3)nc(N2CC3(C2)c2c(sc(N)c2C#N)C2CC23)n1)[C@H](C)c1cccnc1N (stereo partly drawn) [Compound 212, 8-amino-1′-[4-[[(1R)-1-(2-amino-3-pyridyl)ethyl]-ethyl-amino]-6-[[(2R,8S)-2-fluoro-1,2,3,5,6,7-hexahydropyrrolizin-8-yl]methoxy]-1,3,5-triazin-2-yl]spiro[9-thiatricyclo[4.3.0.02,4]nona-1(6),7-diene-5,3′-azetidine]-7-carbonitrile] | < 10 | < 10 |
| CC(c1cccnc1N)N(C)c1nc(OC[C@@]23CCCN2C[C@H](F)C3)nc(N2CC3(CCc4sc(N)c(C#N)c43)C2)n1 (stereo partly drawn) [Compound 83, 2-amino-1′-[4-[1-(2-amino-3-pyridyl)ethyl-methyl-amino]-6-[[(2R,8S)-2-fluoro-1,2,3,5,6,7-hexahydropyrrolizin-8-yl]methoxy]-1,3,5-triazin-2-yl]spiro[5,6-dihydrocyclopenta[b]thiophene-4,3′-azetidine]-3-carbonitrile] | < 10 | < 10 |
| CN(c1nc(OC[C@@]23CCCN2C[C@H](F)C3)nc(N2CC3(CCc4sc(N)c(C#N)c43)C2)n1)C1CCOC1 (stereo partly drawn) [Compound 36, 2-amino-1′-[4-[[(2R,8S)-2-fluoro-1,2,3,5,6,7-hexahydropyrrolizin-8-yl]methoxy]-6-[methyl(tetrahydrofuran-3-yl)amino]-1,3,5-triazin-2-yl]spiro[5,6-dihydrocyclopenta[b]thiophene-4,3′-azetidine]-3-carbonitrile] | 100 to 1000 | 100 to 1000 |
| C[C@H](c1cccnc1N)N(C)c1nc(OC[C@@]23CCCN2C[C@H](F)C3)nc(N2CCC3(CCCc4sc(N)c(C#N)c43)C2=O)n1 (single isomer, unassigned) [Compound 175B, (*)-2-amino-1′-(4-(((R)-1-(2-aminopyridin-3-yl)ethyl)(methyl)amino)-6-(((2R,7aS)-2-fluorotetrahydro-1H-pyrrolizin-7a(5H)-yl)methoxy)-1,3,5-triazin-2-yl)-2′-oxo-6,7-dihydro-5H-spiro[benzo[b]thiophene-4,3′-pyrrolidine]-3-carbonitrile] | < 10 | 100 to 1000 |
| C[C@@]1(CO)C[C@H](O)CN1c1nc(OC[C@@]23CCCN2C[C@H](F)C3)nc(N2CC3(CCc4sc(N)c(C#N)c43)C2)n1 [Compound 66, 2-amino-1′-[4-[[(2R,8S)-2-fluoro-1,2,3,5,6,7-hexahydropyrrolizin-8-yl]methoxy]-6-[(2S,4S)-4-hydroxy-2-(hydroxymethyl)-2-methyl-pyrrolidin-1-yl]-1,3,5-triazin-2-yl]spiro[5,6-dihydrocyclopenta[b]thiophene-4,3′-azetidine]-3-carbonitrile] | 10 to 100 | 100 to 1000 |
| CN(Cc1cc(C(N)=O)nn1C)c1nc(OC[C@@]23CCCN2C[C@H](F)C3)nc(N2CC3(CCc4sc(N)c(C#N)c43)C2)n1 [Compound 135, 5-[[[4-(2-amino-3-cyano-spiro[5,6-dihydrocyclopenta[b]thiophene-4,3′-azetidine]-1′-yl)-6-[[(2R,8S)-2-fluoro-1,2,3,5,6,7-hexahydropyrrolizin-8-yl]methoxy]-1,3,5-triazin-2-yl]-methyl-amino]methyl]-1-methyl-pyrazole-3-carboxamide] | 100 to 1000 | 100 to 1000 |
| N#Cc1c(N)sc2c1C1(CN(c3nc(OC[C@@]45CCCN4C[C@H](F)C5)nc(N4C5CCC4CC(=O)C5)n3)C1)SC2 [Compound 273, 2-amino-1′-[4-[[(2R,8S)-2-fluoro-1,2,3,5,6,7-hexahydropyrrolizin-8-yl]methoxy]-6-(3-oxo-8-azabicyclo[3.2.1]octan-8-yl)-1,3,5-triazin-2-yl]spiro[6H-thieno[3,4-b]thiophene-4,3′-azetidine]-3-carbonitrile] | 10 to 100 | 100 to 1000 |
| N#Cc1c(N)sc2c1C1(CN(c3nc(OC[C@@]45CCCN4C[C@H](F)C5)nc(N4C5CNC(=O)C4C5)n3)C1)SC2 (stereo partly drawn) [Compound 267, 2-amino-1′-[4-[[(2R,8S)-2-fluoro-1,2,3,5,6,7-hexahydropyrrolizin-8-yl]methoxy]-6-(2-oxo-3,6-diazabicyclo[3.1.1]heptan-6-yl)-1,3,5-triazin-2-yl]spiro[6H-thieno[3,4-b]thiophene-4,3′-azetidine]-3-carbonitrile] | < 10 | 10 to 100 |
| CC(c1cccnc1C(F)F)N(C)c1nc(OC[C@@]23CCCN2C[C@H](F)C3)nc(N2CC3(C2)SCc2sc(N)c(C#N)c23)n1 (stereo partly drawn) [Compound 205, 2-amino-1′-[4-[1-[2-(difluoromethyl)-3-pyridyl]ethyl-methyl-amino]-6-[[(2R,8S)-2-fluoro-1,2,3,5,6,7-hexahydropyrrolizin-8-yl]methoxy]-1,3,5-triazin-2-yl]spiro[6H-thieno[3,4-b]thiophene-4,3′-azetidine]-3-carbonitrile] | 100 to 1000 | 1000 to 20000 |
| N#Cc1c(N)sc2c1C1(CN(c3nc(OC[C@@]45CCCN4C[C@H](F)C5)nc(N4C5CSCC4C5)n3)C1)SC2 [Compound 269, 2-amino-1′-[4-[[(2R,8S)-2-fluoro-1,2,3,5,6,7-hexahydropyrrolizin-8-yl]methoxy]-6-(3-thia-6-azabicyclo[3.1.1]heptan-6-yl)-1,3,5-triazin-2-yl]spiro[6H-thieno[3,4-b]thiophene-4,3′-azetidine]-3-carbonitrile] | 10 to 100 | 100 to 1000 |
| N#Cc1c(N)sc2c1C1(CN(c3nc(OC[C@@]45CCCN4C[C@H](F)C5)nc(Oc4cn[nH]c4)n3)C1)SC2 [Compound 164, 2-amino-1′-[4-[[(2R,8S)-2-fluoro-1,2,3,5,6,7-hexahydropyrrolizin-8-yl]methoxy]-6-(1H-pyrazol-4-yloxy)-1,3,5-triazin-2-yl]spiro[6H-thieno[3,4-b]thiophene-4,3′-azetidine]-3-carbonitrile] | 10 to 100 | 100 to 1000 |
